# Assay results reported in patent publication US6177409A, “Method for the site specific synthesis of novel 3-hydroxypyridin-4(1H)ons derivatives from aminomonosaccharides or aminoitols, products obtained by this method and their applications” (priority 1996, dated 2001).
# Assays:
# mice = assay: in vivo
# Description: (§1) The samples are put in a solution either in water or in a mixture of water-DMSO (3:2; v/v) so as to obtain solutions of varying concentrations,either lower than or equal to 130 g·L^-1; the volumes injected are calculated on the basis of 0.2 mL for a mouse body weight of 20 g.
# (§2) The toxicity is evaluated starting from aqueous solutions, either buffered or not with NaH2 PO4 or else with Na2 HPO4, or else after addition of a stoichiometric quantity of NaHCO3.
# (§3) The 2-methyl-3-hydroxypyridine-4(1H)-one derivatives of glycerol (14), of xylitol (17), of mono-acetone xylose (12) and of solketal (11) were injected by I. V. route.
# (§4) The 2-methyl-3-hydroxypyridine-4(1H)-one compound of diacetone xylitol (10) was injected by I. P. route.
# in vivo = conditions: mouse, in vivo
# Description: as §1, §2, §3, §4
# [1] = male and female mice, I.V., (maximum solubility)
smiles,measurement,setting,value
"Cc1c(O)c(=O)ccn1C[C@H]1O[C@@H]2OC(C)(C)O[C@@H]2[C@H]1O [Compound 12, 1-(1',2'-O-isopropylidene-α-D-xylofuranose-5-yl)-2-methyl-3-hydroxypyridine-4-(1H)-one]",LD10,"mice; female mice, I.V.",1000 mg/kg
same,Acute toxicity in mice,"mice; male mice, I.V.",totally innocuous at 1300 mg.kg^-1
same,toxicity compared with L1,mice; mice,less toxic than L1
same,first toxic effects (=LD10),"mice; mice, I.V.",1300 mg/kg
same,Cause of death,"mice; mouse, in vivo, iv, 1000 mg/kg",respiratory deficiency
same,Mortality times,"mice; mouse, in vivo, iv, 1000 mg/kg",4 min
same,Mortality times,"mice; mouse, in vivo, iv, 1300 mg/kg",360 to 1080 min
"Cc1c(O)c(=O)ccn1CC1OC(C)(C)OC1C1COC(C)(C)O1 (centres unmarked) [Compound 10, 1-(2',3': 4',5'-di-O-isopropylidene-xylityl)-2-methyl-3-hydroxypyridine-4(1H)-one]",solubility at the doses studied,"Solubility in water; acute toxicity doses, compared with L1",less soluble at the doses studied
same,solubility in water,Solubility in water; water,weak
same,toxicity compared with L1,mice; mice,weaker toxicity than L1
same,Macroscopic lesions of visceral organs,"mice; mouse, in vivo, ip",No visceral organ presented macroscopic lesions
same,Mortality (number of mice),"mice; mouse, in vivo, ip, 325 mg/kg",0
same,Secondary effects,"mice; mouse, in vivo, ip, 325 mg/kg",none (5/5)
same,Mortality (number of mice),"mice; mouse, in vivo, ip, 650 mg/kg",0
same,Secondary effects,"mice; mouse, in vivo, ip, 650 mg/kg",none (5/5)
same,LD50,"in vivo; ip, LD50",> 650 mg/kg
"Cc1c(O)c(=O)ccn1CC1COC(C)(C)O1 (centres unmarked) [Compound 11, 1-(2',3'-O-isopropylidene-glyceryl)-2-methyl-3-hydroxypyridine-4(1H)-one]",toxicity compared with L1,mice; mice,toxicity higher than that of L1
same,LD50 ± SD,"mice; mouse, in vivo, iv",745 ± 84 mg/kg
same,neurophysiological effects,"mice; mouse, in vivo, iv",induces adverse neurophysiological effects
same,Mortality (number of mice),"mice; mouse, in vivo, iv, 500 mg/kg",0
same,Mortality times,"mice; mouse, in vivo, iv, 650 mg/kg",3 min
same,Mortality (number of mice),"mice; mouse, in vivo, iv, 800 mg/kg",2
same,Mortality (number of mice),"mice; mouse, in vivo, iv, 1000 mg/kg",4
same,Secondary effects,"mice; mouse, in vivo, iv, 1000 mg/kg",1 min. convulsive phase followed by 10 min. of drop in spontaneous activity (10/10)
same,Mortality (number of mice),"mice; mouse, in vivo, iv, 1300 mg/kg",5
same,Mortality times,"mice; mouse, in vivo, iv, 1300 mg/kg",30-90
same,Secondary effects,"mice; mouse, in vivo, iv, 1300 mg/kg",death preceded by a marked convulsive phase (10/10)
same,LD50,"in vivo; iv, LD50 ± SD",817 ± 75 mg/kg
"Cc1c(O)c(=O)ccn1CC(O)CO (centres unmarked) [Compound 14, 1-glyceryl-2-methyl-3-hydroxypyridine-4(1H)-one]",solubility,Solubility in water; water,> 130 mg/mL
same,Mortality (number of mice),"mice; female, I.V., 1300 mg/kg, water 60/DMSO 40, 5 mice",0
same,Mortality (number of mice),"mice; female, I.V., 1300 mg/kg, water, 5 mice",0
same,Acute toxicity in mice,mice; [1],totally innocuous at 1300 mg.kg^-1
same,Mortality (number of mice),"mice; male, I.V., 1300 mg/kg, water 60/DMSO 40, 5 mice",0
same,Mortality (number of mice),"mice; male, I.V., 1300 mg/kg, water, 5 mice",0
same,toxicity at 1300 mg/kg,"mice; mice, I.V., 1300 mg.kg^-1, running text",non-toxic
"Cc1c(O)c(=O)ccn1C [Compound L1, 1.2-dimethyl-3-hydroxypyridine-4(1H)-one, reference compound]",Secondary effects,"mice; mouse, in vivo, ip, 650 mg/kg, pH 7",spontaneous decrease in activity xx min. before death (5/5)
same,Secondary effects,"mice; mouse, in vivo, iv, 325 mg/kg, pH 2.5","irritation at injection, spontaneous decrease in activity 2-4 min. (5/5)"
same,mortality,in vivo; 1300 mg/kg,100%
"Cc1c(O)c(=O)ccn1CC(O)C(O)C(O)CO (centres unmarked) [Compound 17, 1-xylityl-2-methyl-3-hydroxypyridine-4(1H)-one]",Acute toxicity in mice,mice; [1],totally innocuous at 1000 mg.kg^-1
same,toxicity compared with L1,mice; mice,less toxic than L1
same,first toxic effects (=LD10),"mice; mice, I.V.",1300 mg/kg
same,Onset of significant decrease in spontaneous activity after injection,"mice; mouse, in vivo, iv",~2 h
same,Mortality (number of mice),"mice; mouse, in vivo, iv, 650 mg/kg",0
same,Secondary effects,"mice; mouse, in vivo, iv, 650 mg/kg",none (5/5)
same,Mortality (number of mice),"mice; mouse, in vivo, iv, 1000 mg/kg",0
same,Secondary effects,"mice; mouse, in vivo, iv, 1000 mg/kg",none (5/5)
same,Mortality (number of mice),"mice; mouse, in vivo, iv, 1300 mg/kg",0
